Where only a bound is given, the exact number is not on record here.

The target in one experiment is T1, human NEP (Homo sapiens, UniProt P08473).
T1 construct: purchased R&D Systems, Minneapolis, Minn; 1182-ZN
T1 sequence (P08473 whole entry): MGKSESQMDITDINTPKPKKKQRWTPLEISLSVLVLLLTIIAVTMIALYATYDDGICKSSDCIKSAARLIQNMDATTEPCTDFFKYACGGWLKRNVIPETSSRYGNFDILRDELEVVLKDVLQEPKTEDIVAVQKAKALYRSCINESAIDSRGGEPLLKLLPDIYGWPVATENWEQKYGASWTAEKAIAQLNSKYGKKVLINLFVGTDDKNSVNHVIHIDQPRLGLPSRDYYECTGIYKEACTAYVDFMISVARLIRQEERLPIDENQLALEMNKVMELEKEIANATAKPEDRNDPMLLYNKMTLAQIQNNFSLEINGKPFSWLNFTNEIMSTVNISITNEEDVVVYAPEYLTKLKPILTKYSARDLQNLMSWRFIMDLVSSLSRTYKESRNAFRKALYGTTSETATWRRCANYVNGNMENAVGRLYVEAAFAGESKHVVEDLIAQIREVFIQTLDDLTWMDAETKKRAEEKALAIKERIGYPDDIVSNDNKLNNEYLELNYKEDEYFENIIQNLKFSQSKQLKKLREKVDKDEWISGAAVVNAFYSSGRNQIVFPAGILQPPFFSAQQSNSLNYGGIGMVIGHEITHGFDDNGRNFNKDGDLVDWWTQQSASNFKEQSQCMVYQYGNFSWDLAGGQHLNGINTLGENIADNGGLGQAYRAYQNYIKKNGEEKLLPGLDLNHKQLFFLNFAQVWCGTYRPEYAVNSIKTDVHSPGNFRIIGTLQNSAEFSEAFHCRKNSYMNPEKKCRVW
The experiment can be described thus: In vitro enzyme inhibition assay at human NEP (fluorogenic peptide substrate). It counts as biochemical. The note with it: recombinant human NEP; substrate Mca-D-Arg-Arg-Leu-Dap-(Dnp)-OH 10 μM; 37° C.; values given as ranges. As for the experimental part: The inhibitory activities of compounds at human and rat neprilysin (EC 3.4.24.11; NEP) and human angiotensin converting enzyme (ACE) were determined using in vitro assays as described below.
Recombinant human NEP and recombinant human ACE were obtained commercially (R&D Systems, Minneapolis, Minn., catalog numbers 1182-ZN and 929-ZN, respectively). The fluorogenic peptide substrate Mca-D-Arg-Arg-Leu-Dap-(Dnp)-OH (Medeiros et al. (1997) Braz. J. Med. Biol. Res. 30:1157-62; Anaspec, San Jose, Calif.) and Abz-Phe-Arg-Lys(Dnp)-Pro-OH (Araujo et al. (2000) Biochemistry 39:8519-8525; Bachem, Torrance, Calif.) were used in the NEP and ACE assays respectively.
The assays were performed in 384-well white opaque plates at 37° C. using the fluorogenic peptide substrates at a concentration of 10 μM in Assay Buffer (NEP: 50 mM HEPES, pH 7.5, 100 mM NaCl, 0.01% polyethylene glycol sorbitan monolaurate (Tween-20), 10 μM ZnSO4; ACE: 50 mM HEPES, pH 7.5, 100 mM NaCl, 0.01% Tween-20, 1 μM ZnSO4).
Test compounds were assayed over the range of concentrations from 10 μM to 20 pM. Test compounds were added to the enzymes and incubated for 30 minute at 37° C. prior to initiating the reaction by the addition of substrate. Reactions were terminated after 20 minutes of incubation at 37° C. by the addition of glacial acetic acid to a final concentration of 3.6% (v/v).
Plates were read on a fluorometer with excitation and emission wavelengths set to 320 nm and 405 nm, respectively Inhibition constants were obtained by nonlinear regression of the data using the equation (GraphPad Software, Inc., San Diego, Calif.): v=v0/[1+(I/K′)] where v is the reaction rate, v0 is the uninhibited reaction rate, I is the inhibitor concentration and K′ is the apparent inhibition constant.
Compounds of the invention were tested in this assay and found to have pKi values at human NEP as follows.
Consider `CN(C)C(=O)c1cc(C(=O)N[C@H](Cc2ccccc2Cl)[C@@H](O)C(=O)O)n[nH]1` [Example 2-54], for which the “pKi values at human NEP” value is given as 8.0-8.9.

Staying with this experiment, now noted: recombinant human NEP; substrate Mca-D-Arg-Arg-Leu-Dap-(Dnp)-OH 10 μM; 37° C.; values given as ranges; read-out: pKi values at human NEP (converted).
Regarding `O=C(N[C@H](Cc1ccccc1Cl)[C@@H](O)C(=O)O)c1cc(-c2ccc3ccccc3c2)[nH]n1` [Example 2-53, (2R,3R)-4-(2-Chloro-phenyl)-2-hydroxy-3-[(5-naphthalen-2-yl-1H-pyrazole-3-carbonyl)-amino]-butyric acid], the Ki is 12.6 to 100 nM.
On the same count and under the same terms, for `O=C(N[C@H](Cc1ccccc1Cl)[C@@H](O)C(=O)O)c1cc(C(=O)N2CCOCC2)[nH]n1` [Example 2-55, (2R,3R)-4-(2-Chloro-phenyl)-2-hydroxy-3-{[5-(morpholine-4-carbonyl)-1H-pyrazole-3-carbonyl]-amino}-butyric acid] the value was 12.6 to 100 nM.
On the same count and under the same terms, in the case of `CC(C)CN(C)C(=O)c1cc(C(=O)N[C@H](Cc2ccccc2Cl)[C@@H](O)C(=O)O)n[nH]1` [Example 2-56, (2R,3R)-4-(2-Chloro-phenyl)-2-hydroxy-3-{[5-(isobutyl-methyl-carbamoyl)-1H-pyrazole-3-carbonyl]-amino}-butyric acid] it was 12.6 to 100 nM; in that of `O=C(N[C@H](Cc1ccccc1Cl)[C@@H](O)C(=O)O)c1cc(NC(=O)c2ccccc2Cl)[nH]n1` [Example 2-57, (2R,3R)-3-{[5-(2-Chloro-benzoylamino)-1H-pyrazole-3-carbonyl]-amino}-4-(2-chloro-phenyl)-2-hydroxy-butyric acid], 12.6 to 100 nM.
On to `Cn1nc(C(=O)N[C@H](Cc2ccccc2Cl)[C@@H](O)C(=O)O)cc1-c1ccccc1` [Example 2-58, (2R,3R)-4-(2-Chloro-phenyl)-2-hydroxy-3-[(1-methyl-5-phenyl-1H-pyrazole-3-carbonyl)-amino]-butyric acid], for which the Ki was 12.6 to 100 nM.
On the same count and under the same terms, for `O=C(N[C@H](Cc1ccccc1Cl)[C@@H](O)C(=O)O)c1cc(C(=O)O)n(CCc2ccccc2)n1` [Example 2-59, 5-[(1R,2R)-2-Carboxy-1-(2-chloro-benzyl)-2-hydroxy-ethylcarbamoyl]-2-phenethyl-2H-pyrazole-3-carboxylic acid] the value was 12.6 to 100 nM.
Consider `CC(c1ccccc1)n1nc(C(=O)N[C@H](Cc2ccccc2Cl)[C@@H](O)C(=O)O)cc1C(=O)O` (stereo partly drawn) [Example 2-60, 5-[(1R,2R)-2-Carboxy-1-(2-chloro-benzyl)-2-hydroxy-ethylcarbamoyl]-2-(1-phenyl-ethyl)-2H-pyrazole-3-carboxylic acid], for which the Ki is 12.6 to 100 nM.
The same measure, in the same setting: in the case of `Cc1cc(Cn2nc(C(=O)N[C@H](Cc3ccccc3Cl)[C@@H](O)C(=O)O)cc2C(=O)O)no1` [Example 2-61, 5-[(1R,2R)-2-Carboxy-1-(2-chloro-benzyl)-2-hydroxy-ethylcarbamoyl]-2-(5-methyl-isoxazol-3-ylmethyl)-2H-pyrazole-3-carboxylic acid] it was 1.26 to 10 nM; in that of `CCOc1ncc(Cn2nc(C(=O)N[C@H](Cc3ccccc3Cl)[C@@H](O)C(=O)O)cc2C(=O)O)cn1` [Example 2-62, 5-[(1R,2R)-2-Carboxy-1-(2-chloro-benzyl)-2-hydroxy-ethylcarbamoyl]-2-(2-ethoxy-pyrimidin-5-ylmethyl)-2H-pyrazole-3-carboxylic acid], not above 1 nM; in that of `O=C(N[C@H](Cc1ccccc1Cl)[C@@H](O)C(=O)O)c1cc(-c2ccccc2Cl)n(-c2ccc(Cl)c(Cl)c2)n1` [Example 2-63, (2R,3R)-4-(2-Chloro-phenyl)-3-{[5-(2-chloro-phenyl)-1-(3,4-dichloro-phenyl)-1H-pyrazole-3-carbonyl]-amino}-2-hydroxy-butyric acid], 12.6 to 100 nM.
As for `O=C(N[C@H](Cc1ccccc1Cl)[C@@H](O)C(=O)O)c1cc(-c2ccccc2Cl)n(-c2ccc(Cl)cc2Cl)n1` [Example 2-64, (2R,3R)-4-(2-Chloro-phenyl)-3-{[5-(2-chloro-phenyl)-1-(2,4-dichloro-phenyl)-1H-pyrazole-3-carbonyl]-amino}-2-hydroxy-butyric acid], the Ki is 12.6 to 100 nM.
Still for that read-out and setting: for `COc1ccc(Cn2ccc(C(=O)N[C@H](Cc3ccccc3Cl)[C@@H](O)C(=O)O)n2)c(F)c1F` [Example 2-65, (2R,3R)-4-(2-Chloro-phenyl)-3-{[1-(2,3-difluoro-4-methoxy-benzyl)-1H-pyrazole-3-carbonyl]-amino}-2-hydroxy-butyric acid] the value was 1.26 to 10 nM; for `COc1ccc(Cn2ccc(C(=O)N[C@H](Cc3ccccc3Cl)[C@@H](O)C(=O)O)n2)c(F)c1` [Example 2-66, (2R,3R)-4-(2-Chloro-phenyl)-3-{[1-(2-fluoro-4-methoxy-benzyl)-1H-pyrazole-3-carbonyl]-amino}-2-hydroxy-butyric acid], 1.26 to 10 nM.
Regarding `O=C(N[C@H](Cc1ccccc1Cl)[C@@H](O)C(=O)O)c1cc(O)n(Cc2ccc(Cl)cc2F)n1` [Example 2-67, (2R,3R)-3-{[1-(4-Chloro-2-fluoro-benzyl)-5-hydroxy-1H-pyrazole-3-carbonyl]-amino}-4-(2-chloro-phenyl)-2-hydroxy-butyric acid], the Ki is 12.6 to 100 nM.
Same read-out and setting: in the case of `COc1ccc(Cn2nc(C(=O)N[C@H](Cc3ccccc3Cl)[C@@H](O)C(=O)O)cc2O)c(F)c1F` [Example 2-68, (2R,3R)-4-(2-Chloro-phenyl)-3-{[1-(2,3-difluoro-4-methoxy-benzyl)-5-hydroxy-1H-pyrazole-3-carbonyl]-amino}-2-hydroxy-butyric acid] it was 12.6 to 100 nM; in that of `CCCCc1cc(C(=O)N[C@H](Cc2ccccc2Cl)[C@@H](O)C(=O)O)nn1Cc1c(F)c(F)c(OC)c(F)c1F` [Example 2-69, (2R,3R)-3-{[5-Butyl-1-(2,3,5,6-tetrafluoro-4-methoxy-benzyl)-1H-pyrazole-3-carbonyl]-amino}-4-(2-chloro-phenyl)-2-hydroxy-butyric acid], not above 1 nM; in that of `COc1ccc(Cn2nc(C(=O)N[C@H](Cc3ccccc3Cl)[C@@H](O)C(=O)O)cc2C(C)=O)cc1` [Example 2-70, (2R,3R)-3-{[5-Acetyl-1-(4-methoxy-benzyl)-1H-pyrazole-3-carbonyl]-amino}-4-(2-chloro-phenyl)-2-hydroxy-butyric acid], 1.26 to 10 nM.
Same read-out and setting: in the case of `COc1c(F)c(F)c(Cn2nc(C(=O)N[C@H](Cc3ccccc3Cl)[C@@H](O)C(=O)O)cc2C(C)=O)c(F)c1F` [Example 2-71, (2R,3R)-3-{[5-Acetyl-1-(2,3,5,6-tetrafluoro-4-methoxy-benzyl)-1H-pyrazole-3-carbonyl]-amino}-4-(2-chloro-phenyl)-2-hydroxy-butyric acid] it was not above 1 nM; in that of `CN(C)C(=O)c1cc(C(=O)N[C@H](Cc2ccccc2Cl)[C@@H](O)C(=O)O)nn1Cc1ccc(F)cc1` [Example 2-72, (2R,3R)-4-(2-Chloro-phenyl)-3-{[5-dimethylcarbamoyl-1-(4-fluoro-benzyl)-1H-pyrazole-3-carbonyl]-amino}-2-hydroxy-butyric acid], 12.6 to 100 nM; in that of `COc1ccc(Cn2nc(C(=O)N[C@H](Cc3ccccc3Cl)[C@@H](O)C(=O)O)cc2C(=O)N(C)C)cc1` [Example 2-73, (2R,3R)-4-(2-Chloro-phenyl)-3-{[5-dimethylcarbamoyl-1-(4-methoxy-benzyl)-1H-pyrazole-3-carbonyl]-amino}-2-hydroxy-butyric acid], 12.6 to 100 nM.
On the same count and under the same terms, for `O=C(O)Cn1nc(C(=O)N[C@H](Cc2ccccc2Cl)[C@@H](O)C(=O)O)cc1-c1ccc(Cl)cc1Cl` [Example 2-74, (2R,3R)-3-{[1-Carboxymethyl-5-(2,4-dichlorophenyl)-1H-pyrazole-3-carbonyl]-amino}-4-(2-chloro-phenyl)-2-hydroxy-butyric acid] the value was 12.6 to 100 nM; for `CCCCc1cc(C(=O)N[C@H](Cc2ccccc2Cl)[C@@H](O)C(=O)O)[nH]n1` [Example 3-1, (2R,3R)-3-[(5-Butyl-2H-pyrazole-3-carbonyl)-amino]-4-(2-chloro-phenyl)-2-hydroxy-butyric acid], 12.6 to 100 nM; for `O=C(N[C@H](Cc1ccccc1Cl)[C@@H](O)C(=O)O)c1cc(-c2ccccc2C(F)(F)F)n[nH]1` [Example 3-2, (2R,3R)-4-(2-Chloro-phenyl)-2-hydroxy-3-{[5-(2-trifluoromethyl-phenyl)-2H-pyrazole-3-carbonyl]-amino}-butyric acid], 12.6 to 100 nM.
For the molecule `O=C(N[C@H](Cc1ccccc1Cl)[C@@H](O)C(=O)O)c1cc(-c2ccc(F)cc2)n[nH]1` [Example 3-3, (2R,3R)-4-(2-Chloro-phenyl)-3-{[5-(4-fluoro-phenyl)-2H-pyrazole-3-carbonyl]-amino}-2-hydroxy-butyric acid], the Ki was 12.6 to 100 nM.

The values are drawn from patent US8993752B2, “Neprilysin inhibitors” (Theravance Biopharma R&D IP, LLC, priority 2011, dated 2015).
